# Measurements reported in ChEMBL document CHEMBL6114977, “Identification and optimization of a small molecule inhibitor of the ovarian tumor protease of the Crimean-Congo hemorrhagic fever virus” (Bioorg Med Chem, 2025).
# Active and inactive are the calls of the source. The calls are words filed in the database; no cut-off is given here.
# Molecular target: RNA-directed RNA polymerase L (Crimean-Congo hemorrhagic fever virus) (UniProt Q6TQR6)
# Test: (§1) Inhibition of CCHF OTU (ovarian tumor) protease (1 to 169 residues) extracted from Escherichia coli BL21 (DE3) cells using ubiquitin rhodamine 110 as substrate incubated for 30 mins by fluorescence based SynergyH1 plate reader analysis
# Conditions: not given
row,Compound,inhibition
1,Cc1cc(NS(=O)(=O)c2ccc(Nc3nc(-c4ccc(O)cc4O)cs3)cc2)no1,Dose-dependent-effect

# Molecular target: T1, RNA-directed RNA polymerase L (Crimean-Congo hemorrhagic fever virus, UniProt Q6TQR6)
# Test: as §1
# Conditions: not given
# T1 sequence (Q6TQR6 whole entry): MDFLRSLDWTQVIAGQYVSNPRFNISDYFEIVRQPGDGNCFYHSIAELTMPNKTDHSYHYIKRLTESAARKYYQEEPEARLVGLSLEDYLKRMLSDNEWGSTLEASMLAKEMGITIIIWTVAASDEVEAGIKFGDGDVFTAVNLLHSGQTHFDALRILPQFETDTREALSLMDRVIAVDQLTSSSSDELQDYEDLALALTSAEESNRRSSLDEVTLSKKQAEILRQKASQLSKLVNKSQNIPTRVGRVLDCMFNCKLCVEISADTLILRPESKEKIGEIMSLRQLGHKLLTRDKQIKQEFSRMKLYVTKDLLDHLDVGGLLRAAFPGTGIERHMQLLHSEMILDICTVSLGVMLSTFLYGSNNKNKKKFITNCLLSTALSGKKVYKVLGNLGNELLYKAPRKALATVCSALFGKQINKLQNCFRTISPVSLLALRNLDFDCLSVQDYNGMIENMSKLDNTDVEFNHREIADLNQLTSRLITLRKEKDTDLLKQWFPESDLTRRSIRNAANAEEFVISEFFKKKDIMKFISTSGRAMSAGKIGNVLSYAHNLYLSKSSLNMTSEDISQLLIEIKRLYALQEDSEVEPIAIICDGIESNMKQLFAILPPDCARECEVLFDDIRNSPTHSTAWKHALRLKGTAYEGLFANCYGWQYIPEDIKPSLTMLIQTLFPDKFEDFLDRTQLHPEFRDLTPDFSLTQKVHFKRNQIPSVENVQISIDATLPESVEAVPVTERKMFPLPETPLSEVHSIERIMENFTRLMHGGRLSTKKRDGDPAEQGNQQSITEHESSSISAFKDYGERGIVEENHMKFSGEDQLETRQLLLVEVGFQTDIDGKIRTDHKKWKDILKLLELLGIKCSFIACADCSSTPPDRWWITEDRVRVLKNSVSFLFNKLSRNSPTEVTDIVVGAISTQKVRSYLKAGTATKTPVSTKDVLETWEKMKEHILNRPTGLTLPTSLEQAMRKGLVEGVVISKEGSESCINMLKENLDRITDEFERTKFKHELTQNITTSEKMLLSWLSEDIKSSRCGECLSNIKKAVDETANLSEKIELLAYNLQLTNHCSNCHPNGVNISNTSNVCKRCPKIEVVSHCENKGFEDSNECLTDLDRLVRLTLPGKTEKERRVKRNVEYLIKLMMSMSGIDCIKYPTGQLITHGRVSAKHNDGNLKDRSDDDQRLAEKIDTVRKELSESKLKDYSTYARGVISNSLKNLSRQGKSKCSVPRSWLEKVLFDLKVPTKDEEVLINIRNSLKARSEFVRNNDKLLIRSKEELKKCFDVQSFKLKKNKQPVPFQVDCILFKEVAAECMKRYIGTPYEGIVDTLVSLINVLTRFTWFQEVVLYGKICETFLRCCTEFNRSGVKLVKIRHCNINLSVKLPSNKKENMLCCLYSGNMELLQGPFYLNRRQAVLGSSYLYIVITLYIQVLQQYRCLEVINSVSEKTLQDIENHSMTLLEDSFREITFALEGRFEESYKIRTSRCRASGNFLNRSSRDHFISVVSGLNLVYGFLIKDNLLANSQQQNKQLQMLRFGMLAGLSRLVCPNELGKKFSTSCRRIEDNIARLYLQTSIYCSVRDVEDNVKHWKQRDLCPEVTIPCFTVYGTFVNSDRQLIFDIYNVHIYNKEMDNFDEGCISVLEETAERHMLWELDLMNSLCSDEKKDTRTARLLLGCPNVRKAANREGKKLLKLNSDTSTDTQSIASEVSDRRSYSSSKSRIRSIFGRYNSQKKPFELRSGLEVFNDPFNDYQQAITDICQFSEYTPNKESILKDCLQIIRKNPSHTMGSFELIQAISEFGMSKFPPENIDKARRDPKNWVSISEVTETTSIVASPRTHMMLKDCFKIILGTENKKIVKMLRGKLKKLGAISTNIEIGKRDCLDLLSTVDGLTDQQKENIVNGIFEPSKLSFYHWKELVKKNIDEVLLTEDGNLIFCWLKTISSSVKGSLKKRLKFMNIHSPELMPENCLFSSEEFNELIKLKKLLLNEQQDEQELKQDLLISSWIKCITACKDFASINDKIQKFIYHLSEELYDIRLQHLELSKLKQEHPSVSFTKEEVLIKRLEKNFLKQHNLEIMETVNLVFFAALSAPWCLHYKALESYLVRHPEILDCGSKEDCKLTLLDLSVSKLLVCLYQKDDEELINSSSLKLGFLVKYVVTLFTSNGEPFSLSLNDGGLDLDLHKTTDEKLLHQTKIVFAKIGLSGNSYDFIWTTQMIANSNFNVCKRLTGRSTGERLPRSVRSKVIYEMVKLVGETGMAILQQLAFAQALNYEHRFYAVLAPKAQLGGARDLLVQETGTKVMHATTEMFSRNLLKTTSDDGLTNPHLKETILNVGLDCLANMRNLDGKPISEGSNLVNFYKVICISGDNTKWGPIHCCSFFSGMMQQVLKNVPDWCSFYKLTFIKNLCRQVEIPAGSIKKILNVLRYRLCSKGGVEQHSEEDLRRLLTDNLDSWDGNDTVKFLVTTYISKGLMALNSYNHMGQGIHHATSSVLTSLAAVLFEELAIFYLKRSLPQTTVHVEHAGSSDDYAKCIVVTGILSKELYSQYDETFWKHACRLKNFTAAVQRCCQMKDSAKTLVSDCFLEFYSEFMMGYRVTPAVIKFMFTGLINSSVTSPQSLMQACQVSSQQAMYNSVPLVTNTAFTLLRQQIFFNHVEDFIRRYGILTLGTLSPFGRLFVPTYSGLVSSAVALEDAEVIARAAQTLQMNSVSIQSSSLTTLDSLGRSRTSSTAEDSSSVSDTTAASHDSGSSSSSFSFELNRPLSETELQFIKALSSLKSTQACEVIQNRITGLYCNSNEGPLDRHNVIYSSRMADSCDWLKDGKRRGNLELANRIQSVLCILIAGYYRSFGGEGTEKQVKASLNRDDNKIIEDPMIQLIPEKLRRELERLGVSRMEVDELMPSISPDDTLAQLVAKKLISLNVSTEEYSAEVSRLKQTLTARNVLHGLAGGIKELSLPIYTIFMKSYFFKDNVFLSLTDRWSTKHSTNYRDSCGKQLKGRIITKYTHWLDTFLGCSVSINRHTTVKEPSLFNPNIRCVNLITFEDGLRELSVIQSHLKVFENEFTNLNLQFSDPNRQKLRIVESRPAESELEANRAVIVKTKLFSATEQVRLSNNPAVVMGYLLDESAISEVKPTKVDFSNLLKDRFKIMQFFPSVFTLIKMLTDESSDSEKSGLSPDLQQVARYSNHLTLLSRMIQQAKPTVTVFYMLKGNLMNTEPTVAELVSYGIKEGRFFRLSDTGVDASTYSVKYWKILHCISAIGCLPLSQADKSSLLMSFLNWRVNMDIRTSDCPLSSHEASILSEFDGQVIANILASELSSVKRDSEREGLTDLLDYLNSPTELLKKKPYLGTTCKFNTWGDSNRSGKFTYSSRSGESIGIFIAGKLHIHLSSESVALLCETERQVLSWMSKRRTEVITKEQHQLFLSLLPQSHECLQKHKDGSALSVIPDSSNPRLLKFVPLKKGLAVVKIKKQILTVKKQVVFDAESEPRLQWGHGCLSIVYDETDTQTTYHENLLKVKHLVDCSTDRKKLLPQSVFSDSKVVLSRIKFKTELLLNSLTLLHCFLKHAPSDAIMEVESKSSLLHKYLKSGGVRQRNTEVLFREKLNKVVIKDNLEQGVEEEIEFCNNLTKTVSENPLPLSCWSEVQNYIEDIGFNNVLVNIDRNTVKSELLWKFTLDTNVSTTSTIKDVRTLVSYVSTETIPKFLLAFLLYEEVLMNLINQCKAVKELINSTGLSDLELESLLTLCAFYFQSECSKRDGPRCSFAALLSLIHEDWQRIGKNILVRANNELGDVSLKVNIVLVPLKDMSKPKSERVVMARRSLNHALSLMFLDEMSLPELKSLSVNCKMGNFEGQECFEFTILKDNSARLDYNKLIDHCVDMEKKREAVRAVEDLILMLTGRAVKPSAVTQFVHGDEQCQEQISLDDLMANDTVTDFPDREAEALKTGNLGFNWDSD
row,Compound,IC50 [µM]
1,COc1ccccc1-c1csc(Nc2ccc(S(=O)(=O)Nc3cc(C)on3)cc2)n1,> 100
2,Cc1cc(NS(=O)(=O)c2ccc(Nc3nc(-c4ccc(Cl)cc4)cs3)cc2)no1,62.9
3,Cc1cc(NS(=O)(=O)c2ccc(Nc3nc(-c4ccc(OC(F)(F)F)cc4)cs3)cc2)no1,> 100
4,Cc1cc(NS(=O)(=O)c2ccc(Nc3nc(-c4ccccc4F)cs3)cc2)no1,> 100
5,Cc1cc(NS(=O)(=O)c2ccc(Nc3nc(-c4cccnc4)cs3)cc2)no1,> 100
6,Cc1cc(-c2nnn[nH]2)ccc1Nc1nc(-c2ccc(C(F)(F)F)cc2)cs1,19.4
7,Cc1cc(NS(=O)(=O)c2ccc(Nc3nc(-c4ccc(C#N)cc4)cs3)cc2)no1,> 100
8,O=C(O)c1ccc(Nc2nc(-c3ccc(C(F)(F)F)cc3)cs2)cc1,> 50
9,Cc1cc(NS(=O)(=O)c2ccc(Nc3nc(-c4ccc(Br)cc4)cs3)cc2)no1,54.3
10,Cc1cc(NS(=O)(=O)c2ccc(Nc3nc(-c4ccccc4)cs3)cc2)no1,> 100
11,O=S(=O)(O)c1ccc(Nc2nc(-c3ccc(C(F)(F)F)cc3)cs2)cc1,41.8
12,COc1cc(-c2nnn[nH]2)ccc1Nc1nc(-c2ccc(C(F)(F)F)cc2)cs1,29.8
13,Cc1cc(NS(=O)(=O)c2ccc(Nc3nc(-c4ccccc4Cl)cs3)cc2)no1,> 100
14,COc1ccc(-c2csc(Nc3ccc(S(=O)(=O)Nc4cc(C)on4)cc3)n2)cc1,> 100
15,Fc1cc(Nc2nc(-c3ccc(C(F)(F)F)cc3)cs2)ccc1-c1nnn[nH]1,10.7
16,Cc1cc(NS(=O)(=O)c2ccc(Nc3nc(-c4ccc(O)cc4)cs3)cc2)no1,> 100
17,Cc1cc(NS(=O)(=O)c2ccc(Nc3nc(-c4ccccn4)cs3)cc2)no1,> 100
18,Cc1cc(NS(=O)(=O)c2ccc(Nc3nc(-c4ccccc4C(F)(F)F)cs3)cc2)no1,> 100
19,Cc1cc(NS(=O)(=O)c2ccc(Nc3nc(-c4ccc(C(F)(F)F)cc4)cs3)cc2)no1,51

row,Compound,IC50 [µM]
1,FC(F)(F)c1ccc(-c2csc(Nc3ccc(-c4nnn[nH]4)cn3)n2)cc1,18.2
2,FC(F)(F)c1ccc(-c2csc(Nc3ccc(-c4nnn[nH]4)c(Cl)c3)n2)cc1,11.9
3,FC(F)(F)c1ccc(-c2csc(Nc3ccc(-c4nnn[nH]4)c(C(F)(F)F)c3)n2)cc1,12.8
4,Cc1cc(NS(=O)(=O)c2ccc(Nc3nc(-c4cccc(C(F)(F)F)c4)cs3)cc2)no1,> 100
5,NS(=O)(=O)c1ccc(Nc2nc(-c3ccc(C(F)(F)F)cc3)cs2)cc1,> 100
6,FC(F)(F)c1ccc(-c2csc(Nc3ccc(-c4nnn[nH]4)cc3)n2)cc1,16.7
7,Cc1cc(NS(=O)(=O)c2ccc(Nc3nc(-c4ccc(F)cc4)cs3)cc2)no1,86
8,FC(F)(F)c1ccc(-c2csc(Nc3ccc(-c4nnn[nH]4)c4c3CCC4)n2)cc1,17.3
9,CN(c1ccc(-c2nnn[nH]2)cc1)c1nc(-c2ccc(C(F)(F)F)cc2)cs1,19
10,O=C(O)Cc1ccc(Nc2nc(-c3ccc(C(F)(F)F)cc3)cs2)cc1,> 100
11,Cc1cc(NS(=O)(=O)c2ccc(Nc3nc(-c4cccc(F)c4)cs3)cc2)no1,> 100
12,N#Cc1ccc(Nc2nc(-c3ccc(C(F)(F)F)cc3)cs2)cc1,> 100
13,FC(F)(F)c1ccc(-c2ccnc(Nc3ccc(-c4nnn[nH]4)cc3)n2)cc1,38.4
14,COc1cccc(-c2csc(Nc3ccc(S(=O)(=O)Nc4cc(C)on4)cc3)n2)c1,> 100
15,FC(F)(F)c1ccc(-c2coc(Nc3ccc(-c4nnn[nH]4)cc3)n2)cc1,18.2
16,Cc1cc(NS(=O)(=O)c2ccc(Nc3nc(-c4ccc(O)cc4O)cs3)cc2)no1,42.3
17,Cc1cc(Nc2nc(-c3ccc(C(F)(F)F)cc3)cs2)ccc1-c1nnn[nH]1,20
18,FC(F)(F)c1ccc(-c2csc(Nc3ccc(-n4cnnn4)cc3)n2)cc1,> 100
19,FC(F)(F)c1ccc(-c2csc(Nc3ccc(-c4nnn[nH]4)nc3)n2)cc1,> 100

# Molecular target: T2, OTU domain-containing protein 1 (Homo sapiens) (UniProt Q5VV17)
# T2 sequence (whole entry): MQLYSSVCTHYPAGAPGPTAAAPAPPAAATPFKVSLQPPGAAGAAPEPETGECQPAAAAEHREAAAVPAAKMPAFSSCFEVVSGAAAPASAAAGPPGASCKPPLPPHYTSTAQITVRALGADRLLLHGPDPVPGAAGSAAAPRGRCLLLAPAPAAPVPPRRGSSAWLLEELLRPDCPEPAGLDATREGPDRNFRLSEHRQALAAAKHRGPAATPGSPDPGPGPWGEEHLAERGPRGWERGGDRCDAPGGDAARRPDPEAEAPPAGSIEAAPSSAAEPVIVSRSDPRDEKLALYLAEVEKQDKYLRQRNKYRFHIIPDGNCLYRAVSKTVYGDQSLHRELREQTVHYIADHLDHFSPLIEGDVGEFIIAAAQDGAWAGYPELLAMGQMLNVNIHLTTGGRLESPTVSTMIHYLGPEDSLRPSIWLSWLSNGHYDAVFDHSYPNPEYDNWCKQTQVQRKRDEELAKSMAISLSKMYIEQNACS
# Test: Inhibition of human OTUD1 using ubiquitin rhodamine 110 as substrate at 50 uM incubated for 30 mins by fluorescence based SynergyH1 plate reader analysis
# Conditions: not given
row,Compound,inhibition
1,Fc1cc(Nc2nc(-c3ccc(C(F)(F)F)cc3)cs2)ccc1-c1nnn[nH]1,Active
2,FC(F)(F)c1ccc(-c2csc(Nc3ccc(-c4nnn[nH]4)c(Cl)c3)n2)cc1,Active
3,FC(F)(F)c1ccc(-c2csc(Nc3ccc(-c4nnn[nH]4)c(C(F)(F)F)c3)n2)cc1,Active

# Molecular target: T1, RNA-directed RNA polymerase L
# Test: Inhibition of CCHF OTU (ovarian tumor) protease (1 to 169 residues) extracted from Escherichia coli BL21 (DE3) cells assessed as inhibition constant by fluorescence based SynergyH1 plate reader analysis
# Conditions: not given
row,Compound,Ki [µM]
1,Cc1cc(NS(=O)(=O)c2ccc(Nc3nc(-c4ccc(Cl)cc4)cs3)cc2)no1,38.5
2,Cc1cc(-c2nnn[nH]2)ccc1Nc1nc(-c2ccc(C(F)(F)F)cc2)cs1,11.9
3,Cc1cc(NS(=O)(=O)c2ccc(Nc3nc(-c4ccc(Br)cc4)cs3)cc2)no1,33.2
4,O=S(=O)(O)c1ccc(Nc2nc(-c3ccc(C(F)(F)F)cc3)cs2)cc1,25.6
5,COc1cc(-c2nnn[nH]2)ccc1Nc1nc(-c2ccc(C(F)(F)F)cc2)cs1,18.2
6,Fc1cc(Nc2nc(-c3ccc(C(F)(F)F)cc3)cs2)ccc1-c1nnn[nH]1,6.6
7,Cc1cc(NS(=O)(=O)c2ccc(Nc3nc(-c4ccc(C(F)(F)F)cc4)cs3)cc2)no1,31.2
8,FC(F)(F)c1ccc(-c2csc(Nc3ccc(-c4nnn[nH]4)cn3)n2)cc1,11.1
9,FC(F)(F)c1ccc(-c2csc(Nc3ccc(-c4nnn[nH]4)c(Cl)c3)n2)cc1,7.3
10,FC(F)(F)c1ccc(-c2csc(Nc3ccc(-c4nnn[nH]4)c(C(F)(F)F)c3)n2)cc1,7.8
11,FC(F)(F)c1ccc(-c2csc(Nc3ccc(-c4nnn[nH]4)cc3)n2)cc1,10.2
12,Cc1cc(NS(=O)(=O)c2ccc(Nc3nc(-c4ccc(F)cc4)cs3)cc2)no1,52.7
13,FC(F)(F)c1ccc(-c2csc(Nc3ccc(-c4nnn[nH]4)c4c3CCC4)n2)cc1,10.6
14,CN(c1ccc(-c2nnn[nH]2)cc1)c1nc(-c2ccc(C(F)(F)F)cc2)cs1,11.6
15,FC(F)(F)c1ccc(-c2ccnc(Nc3ccc(-c4nnn[nH]4)cc3)n2)cc1,23.5
16,FC(F)(F)c1ccc(-c2coc(Nc3ccc(-c4nnn[nH]4)cc3)n2)cc1,11.1
17,Cc1cc(NS(=O)(=O)c2ccc(Nc3nc(-c4ccc(O)cc4O)cs3)cc2)no1,25.9
18,Cc1cc(Nc2nc(-c3ccc(C(F)(F)F)cc3)cs2)ccc1-c1nnn[nH]1,12.2

# Molecular target: Ubiquitin carboxyl-terminal hydrolase 7 (Homo sapiens) (UniProt Q93009)
# Test: Inhibition of human USP7 using ubiquitin rhodamine 110 as substrate at 50 uM incubated for 30 mins by fluorescence based SynergyH1 plate reader analysis
# Conditions: not given
# Chain of Ubiquitin carboxyl-terminal hydrolase 7 (Homo sapiens) (Q93009 whole entry, looked up): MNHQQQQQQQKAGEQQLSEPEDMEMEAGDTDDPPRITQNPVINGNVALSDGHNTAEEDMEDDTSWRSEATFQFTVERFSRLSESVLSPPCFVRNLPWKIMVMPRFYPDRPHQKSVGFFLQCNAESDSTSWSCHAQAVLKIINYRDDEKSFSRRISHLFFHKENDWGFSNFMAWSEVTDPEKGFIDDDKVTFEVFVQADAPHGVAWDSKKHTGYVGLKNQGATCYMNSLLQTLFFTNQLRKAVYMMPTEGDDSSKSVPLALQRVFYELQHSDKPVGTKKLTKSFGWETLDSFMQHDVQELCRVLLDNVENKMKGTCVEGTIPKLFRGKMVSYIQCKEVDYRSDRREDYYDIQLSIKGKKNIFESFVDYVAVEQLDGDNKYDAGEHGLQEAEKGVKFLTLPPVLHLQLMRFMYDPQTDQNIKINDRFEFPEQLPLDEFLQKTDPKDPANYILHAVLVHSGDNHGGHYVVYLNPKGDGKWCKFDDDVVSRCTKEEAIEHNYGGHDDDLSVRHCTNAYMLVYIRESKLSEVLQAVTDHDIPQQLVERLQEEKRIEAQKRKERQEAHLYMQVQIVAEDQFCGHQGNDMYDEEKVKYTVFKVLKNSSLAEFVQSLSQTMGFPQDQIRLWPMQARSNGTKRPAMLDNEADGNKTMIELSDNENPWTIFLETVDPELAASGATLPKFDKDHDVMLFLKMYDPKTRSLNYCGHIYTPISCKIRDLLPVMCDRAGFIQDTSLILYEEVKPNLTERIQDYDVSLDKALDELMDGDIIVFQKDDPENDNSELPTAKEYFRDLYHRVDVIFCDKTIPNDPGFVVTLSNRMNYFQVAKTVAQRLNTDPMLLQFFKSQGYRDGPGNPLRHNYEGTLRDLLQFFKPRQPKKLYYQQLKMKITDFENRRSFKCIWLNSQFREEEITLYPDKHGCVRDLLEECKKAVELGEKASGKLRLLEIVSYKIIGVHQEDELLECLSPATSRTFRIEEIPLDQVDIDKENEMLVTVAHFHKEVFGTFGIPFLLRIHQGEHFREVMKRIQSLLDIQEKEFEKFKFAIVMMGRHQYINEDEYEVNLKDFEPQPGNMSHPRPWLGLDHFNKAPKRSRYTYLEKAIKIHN
row,Compound,inhibition
1,Cc1cc(-c2nnn[nH]2)ccc1Nc1nc(-c2ccc(C(F)(F)F)cc2)cs1,Active
2,COc1cc(-c2nnn[nH]2)ccc1Nc1nc(-c2ccc(C(F)(F)F)cc2)cs1,Active
3,Fc1cc(Nc2nc(-c3ccc(C(F)(F)F)cc3)cs2)ccc1-c1nnn[nH]1,Active
4,FC(F)(F)c1ccc(-c2csc(Nc3ccc(-c4nnn[nH]4)cn3)n2)cc1,Active
5,FC(F)(F)c1ccc(-c2csc(Nc3ccc(-c4nnn[nH]4)c(Cl)c3)n2)cc1,Active
6,FC(F)(F)c1ccc(-c2csc(Nc3ccc(-c4nnn[nH]4)c(C(F)(F)F)c3)n2)cc1,Active
7,FC(F)(F)c1ccc(-c2csc(Nc3ccc(-c4nnn[nH]4)cc3)n2)cc1,Active
8,FC(F)(F)c1ccc(-c2csc(Nc3ccc(-c4nnn[nH]4)c4c3CCC4)n2)cc1,Active
9,FC(F)(F)c1ccc(-c2ccnc(Nc3ccc(-c4nnn[nH]4)cc3)n2)cc1,Active
10,FC(F)(F)c1ccc(-c2coc(Nc3ccc(-c4nnn[nH]4)cc3)n2)cc1,Active

# Molecular target: T3, Ubiquitin carboxyl-terminal hydrolase isozyme L5 (Homo sapiens) (UniProt Q9Y5K5)
# T3 sequence (whole entry): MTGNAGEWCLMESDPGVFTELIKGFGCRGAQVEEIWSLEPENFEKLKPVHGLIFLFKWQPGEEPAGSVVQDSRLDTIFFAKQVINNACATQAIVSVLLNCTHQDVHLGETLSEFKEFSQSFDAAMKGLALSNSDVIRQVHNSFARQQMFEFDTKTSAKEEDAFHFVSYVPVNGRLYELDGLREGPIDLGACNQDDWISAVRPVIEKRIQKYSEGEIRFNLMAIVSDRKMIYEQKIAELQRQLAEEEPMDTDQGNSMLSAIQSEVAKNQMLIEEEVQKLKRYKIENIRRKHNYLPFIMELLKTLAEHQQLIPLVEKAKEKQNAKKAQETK
# Test: Inhibition of human UCHL5 using ubiquitin rhodamine 110 as substrate at 50 uM incubated for 30 mins by fluorescence based SynergyH1 plate reader analysis
# Conditions: not given
row,Compound,inhibition
1,Fc1cc(Nc2nc(-c3ccc(C(F)(F)F)cc3)cs2)ccc1-c1nnn[nH]1,Active
2,FC(F)(F)c1ccc(-c2csc(Nc3ccc(-c4nnn[nH]4)c(Cl)c3)n2)cc1,Active
3,FC(F)(F)c1ccc(-c2csc(Nc3ccc(-c4nnn[nH]4)c(C(F)(F)F)c3)n2)cc1,Active

# Molecular target: T4, OTU domain-containing protein 7B (Homo sapiens) (UniProt Q6GQQ9)
# T4 sequence (whole entry): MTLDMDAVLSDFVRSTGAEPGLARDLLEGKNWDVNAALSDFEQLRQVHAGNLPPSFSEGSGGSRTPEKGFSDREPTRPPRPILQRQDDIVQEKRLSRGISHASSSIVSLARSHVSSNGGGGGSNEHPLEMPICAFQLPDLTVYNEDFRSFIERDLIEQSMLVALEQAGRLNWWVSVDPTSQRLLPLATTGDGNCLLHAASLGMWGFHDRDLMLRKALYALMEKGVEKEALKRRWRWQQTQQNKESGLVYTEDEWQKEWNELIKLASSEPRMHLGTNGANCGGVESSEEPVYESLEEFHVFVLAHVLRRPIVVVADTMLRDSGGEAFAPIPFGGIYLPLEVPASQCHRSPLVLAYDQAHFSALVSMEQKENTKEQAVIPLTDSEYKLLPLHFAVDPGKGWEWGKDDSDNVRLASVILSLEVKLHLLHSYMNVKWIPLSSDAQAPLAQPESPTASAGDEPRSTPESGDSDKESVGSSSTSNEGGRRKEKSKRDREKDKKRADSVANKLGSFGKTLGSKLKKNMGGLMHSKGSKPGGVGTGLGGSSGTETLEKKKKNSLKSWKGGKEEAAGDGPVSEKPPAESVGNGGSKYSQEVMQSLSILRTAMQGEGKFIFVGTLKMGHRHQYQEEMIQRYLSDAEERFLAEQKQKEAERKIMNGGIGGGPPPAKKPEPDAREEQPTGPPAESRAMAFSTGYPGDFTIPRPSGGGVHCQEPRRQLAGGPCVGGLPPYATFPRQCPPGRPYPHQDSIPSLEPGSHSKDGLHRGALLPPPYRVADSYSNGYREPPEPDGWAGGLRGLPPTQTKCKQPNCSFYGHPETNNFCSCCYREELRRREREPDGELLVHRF
# Test: Inhibition of human cezanne using ubiquitin rhodamine 110 as substrate at 50 uM incubated for 30 mins by fluorescence based SynergyH1 plate reader analysis
# Conditions: not given
row,Compound,inhibition
1,Fc1cc(Nc2nc(-c3ccc(C(F)(F)F)cc3)cs2)ccc1-c1nnn[nH]1,Active
2,FC(F)(F)c1ccc(-c2csc(Nc3ccc(-c4nnn[nH]4)c(Cl)c3)n2)cc1,Active
3,FC(F)(F)c1ccc(-c2csc(Nc3ccc(-c4nnn[nH]4)c(C(F)(F)F)c3)n2)cc1,Active

# Test system: Fc1cc(Nc2nc(-c3ccc(C(F)(F)F)cc3)cs2)ccc1-c1nnn[nH]1
# Test: Competitive inhibition of CCHF OTU (ovarian tumor) protease (1 to 169 residues) extracted from Escherichia coli BL21 (DE3) cells using ubiquitin rhodamine 110 as substrate assessed as Km by Michaelis-Menten analysis (reference value: 31.6 nM)
# Conditions: Crimean-Congo hemorrhagic fever virus
row,Compound,Km [µM]
1,"RNA-directed RNA polymerase L (Crimean-Congo hemorrhagic fever virus), Q6TQR6",0.264
